# PMC6813295, “A tumour-selective cascade activatable self-detained system for drug delivery and cancer imaging” (Nature Communications, 2019)
# Where a SMILES comes first, the peptide text is derived from it. The star is where a group is joined. X1 = CC1(C)C(=CC=C2CCCC(C=CC3=[N+](CCCCCC(=O)O)c4ccccc4C3(C)C)=C2*)N(CCCCCC(=O)O)c2ccccc21
# What was measured:
# [1] = Self-assembly behaviour in water (CD, TEM); format: physicochemical
# Protocol: Fig. 2 The structure conformations and self-assembly properties of molecule 1 in aqueous solution. a Illustration of the self-assembly strategy of molecule 1. b CD spectra of molecule 1 and molecule 4 in deionized water at a concentration of 1 μM. c FTIR spectra of molecule 1 in a monomeric state and molecule 4 in a fibrous assembled state. The arrows identify the typical characteristic peaks of the antiparallel β-sheet structure. d TEM image of self-assembled β-sheet nanofibrils of molecule 1 after treatment with caspase-3 (substrate-to-enzyme ratio of 1 μM/U) in HEPES buffer (50 mM, pH 7.4) for 2 h. The manual measurement of the nanofibril diameter is shown in the zoomed image, and the computational simulation result for the length of molecule 4 is inserted. e WAXS and computational simulation results of the β-sheet self-assemblies (molecule 4) identified the β-sheet and laminate spacing of the structures. f The concentration-dependent CD spectra of molecule 4 in the concentration range of 0.5–10 μM. g Time-dependent TEM images of molecule 4 from 10 min to 12 h for monitoring the growth process of the nanofibrous structures. h Temperature-dependent CD intensity changes at 220 nm of molecules 1 and 4 with a heating rate of 1 °C/min and an equilibrium period of 30 s to reveal the self-assembly mechanisms. Scale bar: 100 nm […]
# microscopy (UltraVIEW VoX). […]
# [2] = format: physicochemical
# Protocol: microscopy (UltraVIEW VoX).
# H460 cells (1 x 10^5 cells per well) were seeded in a confocal microscopy dish (MatTek). After culture for 24 h, the cells were treated with P7 (XIAP inhibitor) (50 μM) or […] (caspase inhibitor) (10 μM) for 3 h and followed by PBS washing. And then the molecule 1 (50 μM) and 2 (50 μM) were individually added for 1 h and followed by PBS washing and fresh medium replacement.
# After further 6 h of incubation, the cells were washed twice by PBS and stained with bisBenzimide H 33342 trihydrochloride (Hoechst 33342) (1 mg ml-1; Life Technologies) at 37 °C for 10 min. […]
# [Cy]0 is the initial concentration of the molecule 1 or 4, [Cy]t is the concentration of the molecule 1 or […] after the irradiation of t min. Based on Beer rule, it has the linear relation between the concentration of the molecule 1 or 4 and the absorbance in maximal wavelength for the low concentration cyanine dye. […]
# A0 is the absorbance in maximal wavelength before the irradiation, and At is the absorbance in maximal wavelength after the irradiation. […]
# The pathway of molecule 1 entering cells. […] Subsequently, H460 cells were treated with molecule 1 (50 uM), after 2 h of incubation at 37 ℃ the medium was removed and the cells were washed three times with PBS and analysed by confocal laser scanning […]
structure (smiles),measurement,setting,value
CC[C@H](C)[C@H](NC(=O)[C@@H]1CCCN1C(=O)[C@@H](NC(=O)[C@H](C)N)C(C)C)C(=O)N[C@@H](C)C(=O)N[C@@H](CCC(N)=O)C(=O)N[C@@H](CCCCN)C(=O)N[C@@H](CC(=O)O)C(=O)N[C@@H](CCC(=O)O)C(=O)N[C@H](C(=O)N[C@@H](CC(=O)O)C(=O)N[C@@H](CCCCN)C(=O)N[C@@H](CC(C)C)C(=O)N[C@H](C(=O)N[C@@H](Cc1ccccc1)C(=O)N[C@@H](Cc1ccccc1)C(=O)N[C@@H](C)C(=O)N[C@@H](CCC(=O)O)C(=O)N[C@@H](CSC1=C(C=CC2=[N+](CCCCCC(=O)O)c3ccccc3C2(C)C)CCCC1=CC=C1N(CCCCCC(=O)O)c2ccccc2C1(C)C)C(=O)NCC(=O)O)C(C)C)C(C)C [molecule 1] (H-AVPIAQKDEVDKLVFFAEC(X1)G-OH),secondary structure by CD,[1]; 1 μM in deionized water,random coiled conformation
same,"state in water (dissolved or fibrous structures; TEM, CD)","[1]; deionized water, same conditions, TEM 50 μM, from 1% HFIP, 24 h",well-dissolved
same,photobleaching after irradiation for 6 h,"[2]; irradiation 6 h, pure water, Suppl. Fig. 16: xenon flash lamp, 5 μM in PBS buffer 10 mM pH 7.4, r.t., absorbance at 780 nm",42%
same,photodegradation rate of molecule 1 relative to that of 4,"[2]; rate constants k from ln(A0/At) = kt, tested in parallel",7.5 fold
